We go through four compounds from publication PMC3921447, “Homologous and heterologous desensitization of guanylyl cyclase-B signaling in GH3 somatolactotropes” (Cell and Tissue Research, 2013).

Where two headings read alike, the source gives them in different places. Ends that are not written are not given here.

Assay [1] has as its target T1, GC-B (Rattus norvegicus, UniProt P16067).
T1 construct: rapid homologous desensitization of endogenous GC-B receptors in GH3 cells; endogenous in cells; host or cells: GH3 rat somatolactotrope cells
T1 sequence (P16067 17-1047): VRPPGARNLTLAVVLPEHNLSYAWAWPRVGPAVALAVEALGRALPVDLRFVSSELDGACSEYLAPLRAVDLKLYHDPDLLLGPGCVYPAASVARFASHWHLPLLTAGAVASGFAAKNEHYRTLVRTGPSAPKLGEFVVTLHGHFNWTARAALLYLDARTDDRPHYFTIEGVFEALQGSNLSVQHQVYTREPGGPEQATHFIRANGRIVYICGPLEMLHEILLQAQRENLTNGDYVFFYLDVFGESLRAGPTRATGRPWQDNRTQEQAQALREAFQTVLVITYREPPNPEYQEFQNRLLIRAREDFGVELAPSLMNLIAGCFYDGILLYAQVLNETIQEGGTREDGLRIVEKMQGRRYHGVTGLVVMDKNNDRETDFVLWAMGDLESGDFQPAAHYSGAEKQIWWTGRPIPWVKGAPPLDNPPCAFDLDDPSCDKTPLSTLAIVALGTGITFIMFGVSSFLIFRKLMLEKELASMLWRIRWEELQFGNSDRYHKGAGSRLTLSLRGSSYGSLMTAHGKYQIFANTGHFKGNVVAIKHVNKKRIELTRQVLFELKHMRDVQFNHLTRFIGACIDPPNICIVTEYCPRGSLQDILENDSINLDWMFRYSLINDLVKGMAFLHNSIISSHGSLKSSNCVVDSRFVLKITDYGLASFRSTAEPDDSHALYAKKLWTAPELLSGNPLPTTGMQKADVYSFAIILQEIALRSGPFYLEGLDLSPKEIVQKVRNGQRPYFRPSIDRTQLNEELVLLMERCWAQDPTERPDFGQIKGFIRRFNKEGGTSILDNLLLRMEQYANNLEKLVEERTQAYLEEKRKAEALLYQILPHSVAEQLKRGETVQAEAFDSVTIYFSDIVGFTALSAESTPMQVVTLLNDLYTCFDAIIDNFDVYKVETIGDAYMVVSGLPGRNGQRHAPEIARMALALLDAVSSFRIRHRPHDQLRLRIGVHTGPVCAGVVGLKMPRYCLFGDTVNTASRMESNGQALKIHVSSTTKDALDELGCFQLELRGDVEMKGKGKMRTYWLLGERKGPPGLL
In words: Heterologous desensitization of CNP-stimulated (GC-B) cGMP accumulation in GH3 cells. As to conditions: then 100 nM CNP 15 min with 1 mM IBMX, n = 3. It is filed as cell-based. The text has this:
(§1) Sphingolipids and calcium have been implicated in regulating natriuretic peptide signaling (Abbey-Hosch et al. [2004]; Abbey and Potter [2002]). Therefore, we examined the role of sphingosine-1-phosphate (S1P) on CNP-stimulated cGMP accumulation. […] However, S1P pre-treatment did cause desensitization of CNP-stimulated cGMP accumulation (by 30 ± 2.7 % compared with control, **P < 0.01).
(§2) Fig. 6 Evidence of sphingosine-mediated but not calcium-mediated, heterologous desensitization of GC-B signaling in GH3 somatolactotrope cells. GH3 cells were pre-treated with PSS containing either (a, b) 10 μM sphingosine-1-phosphate (S1P) or (c, d) 1 μM A23187 (calcium ionophore) for 30 min in the absence of IBMX, before a 15-min stimulation with either 100 nM CNP (a, c) or 100 nM ANP (b, d) in the presence of 1 mM IBMX.
(§3) Subsequent experiments examined the potential regulation of GC-B signaling by other peptide hormones. To determine whether the GC-B receptor underwent heterologous desensitization in GH3 cells, the effect of three known activators of PKC on CNP-stimulated cGMP accumulation was analyzed. […] To establish whether the TRH-induced heterologous desensitization of GC-B signaling was PKC-dependent, GH3 cells were pre-treated with either 0 or 1 μM GF109203X for 30 min to inhibit PKC activity. After this, cells were further pre-treated in the absence or presence of GF109203X and 0 or 100 nM TRH for a further 30 min, prior to stimulation with 0 or 100 nM CNP for a final 15-min stimulation in the presence of 1 mM IBMX.
(§4) Fig. 7 Protein kinase C (PKC)-dependent heterologous desensitization mediates the effects of thyrotrophin-releasing hormone (TRH) on CNP-stimulated GC-B signaling in GH3 somatolactotrope cells. a GH3 cells were pre-treated with PSS containing either 0 or 100 nM TRH, phorbol-12-myristate-13-acetate (PMA), or pituitary adenylate cyclase-activating polypeptide (PACAP) for 30 min in the absence of IBMX, before a 15-min stimulation with either 0 or 100 nM CNP in the presence of 1 mM IBMX.

Assay [2] concerns human airway smooth muscle cells. The conditions noted are these: ref Hamad and Knox [1999]; cited from earlier work. The text has this:
(§5) The other major mechanism mediating heterologous desensitization of GC-A and GC-B signaling is the PKC pathway (Potter et al. [2006]). We examined the effects of pre-treatment with TRH, PMA, or PACAP. […] This is in agreement with the predominant expression of vasoactive intestinal peptide activated receptor 2, which is known preferentially to activate cAMP and PKA (Hao et al. [2006]). In contrast, pre-treatments with two known activators of PKC, TRH and PMA do ...

The test system of assay [3] is GC-B. As to conditions: αT3-1 cells, cited from earlier work. The text has this: Experimental paradigms to investigate receptor desensitization are often performed in one of two ways: time-course studies of a single continuous exposure to ligand or pre-treatment and subsequent re-exposure to the same ligand. Our current studies involved the use of both of these approaches to examine particulate guanylyl cyclase signaling in GH3 cells, similar to previous studies investigating PACAP signaling in gonadotropes (McArdle and Forrest-Owen [1997]). Time-course studies of CNP-stimulated cGMP accumulation in GH3 cells have shown a rapid elevation of cGMP levels within 5 min of CNP ... || The other major mechanism mediating heterologous desensitization of GC-A and GC-B signaling is the PKC pathway (Potter et al. [2006]). We examined the effects of pre-treatment with TRH, PMA, or PACAP. […] This is in agreement with the predominant expression of vasoactive intestinal peptide activated receptor 2, which is known preferentially to activate cAMP and PKA (Hao et al. [2006]). In contrast, pre-treatments with two known activators of PKC, TRH and PMA do ...

Assay [4] relates to GH3 cells. The assay can be described thus: Basal cGMP accumulation in GH3 cells after pre-treatment. It is filed as cell-based, rat. As to conditions: 100 nM TRH, PMA or PACAP, 30 min pre-treatment; ns, P > 0.05; Fig. 7a.
From the text: as §1, §2, §3, §4

The subject of assay [5] is GC-B. The conditions noted are these: 293 T cells; ref Abbey-Hosch et al. [2005]; cited from earlier work.
From the text: as §5

The subject of assay [6] is growth hormone secretion. As to conditions: ref Hartt et al. [1995]; Shimekake et al. [1994]; cited from earlier work. The source says: Both humans and mice with mutations in the genes encoding either CNP or its receptor, GC-B, suffer from severe growth disorders (Chusho et al. [2001]) and, in some cases, growth hormone deficiency (Tamura et al. [2004]). Despite significant homology between the three natriuretic peptides and between their receptors, mutations in the genes encoding ANP, BNP, or GC-A fail to phenocopy CNP/GC-B-disrupted mice (Kishimoto et al. [2011]). Our recent observations of GC-B expression in normal fetal pituitary tissue and in a range of human pituitary adenomas (including those from acromegalics) strongly ...

As for `CN(C)CCCn1cc(C2=C(c3c[nH]c4ccccc34)C(=O)NC2=O)c2ccccc21` [GF109203X], the “CNP-stimulated cGMP, % of control response to CNP (TRH desensitization reversed to)” value in assay [1] (1 μM GF109203X 30 min, then GF109203X + 100 nM TRH 30 min, ns compared with control, Fig. 7b) turned out to be 76.4 ± 17.2%. The “reversal of PKC-dependent desensitization” value in assay [2] is reported as “capable of reversing the effect, as has been described previously in human airway smooth muscle cells”.
Regarding `CCCCCCCCCCCCCC(=O)O[C@@H]1[C@@H](C)[C@@]2(O)[C@@H](C=C(CO)C[C@]3(O)C(=O)C(C)=C[C@@H]23)[C@@H]2C(C)(C)[C@]12OC(C)=O` [PMA, phorbol-12-myristate-13-acetate], the “reduction in CNP-stimulated cGMP accumulation compared with control” value in assay [1] (100 nM, 30 min pre-treatment without IBMX, ***P < 0.001, Fig. 7a) was found to be 51.9 ± 2.8%. The “desensitization of GC-B activity” value was “shown to desensitize GC-B activity in 293 T cells and αT3-1 cells” in assay [3] (ref Fowkes et al. [2000]); “shown to desensitize GC-B activity in 293 T cells and αT3-1 cells” in assay [5]. In addition, the “basal cGMP accumulation” value in assay [4] is on record as “failed to alter basal cGMP accumulation”.
Take `Nc1nc2c(ncn2[C@@H]2O[C@@H]3COP(=O)(O)O[C@H]3[C@H]2O)c(=O)[nH]1` [cGMP, cyclic guanosine 3’,5’ monophosphate]: the growth hormone secretion result in assay [6] is “act as growth hormone secretogogs”.
For the compound “gonadotrophin-releasing hormone (QHWSYGLRPG; ends and bridges not checked; UniProt P01148 24-33, looked up)”, the “heterologous desensitization of GC-B signaling” value in assay [3] (ref McArdle et al. [1994], Fowkes et al. [2000]) is recorded as “can cause the heterologous desensitization of GC-B signaling in αT3-1 cells”.
